Experimental data taken from US20240174679A1, “HETEROAROYL AMIDES AS LRRK2 INHIBITORS, PHARMACEUTICAL COMPOSITIONS, AND USES THEREOF” (MERCK SHARP & DOHME LLC, priority 2021, published 2024).

Biological target: GST tagged truncated human mutant G2019S LRRK2 (Homo sapiens (Human), UniProt Q5S007, G2019S)
Experiment: LRRK2 Km ATP LanthaScreen Assay
Format: biochemical
Conditions: 134 μM ATP (Km ATP), LRRKtide substrate, negative log of mean IC50 (molar)
Method: Unless otherwise noted, all reactions are magnetically stirred. Unless otherwise noted, when diethyl ether is used in the experiments described below, it is Fisher ACS certified material and is stabilized with BHT. Unless otherwise noted, “concentrated” and/or “solvent removed under reduced pressure” means evaporating the solvent from a solution or mixture using a rotary evaporator or vacuum pump. Unless otherwise noted, flash chromatography is carried out on a Teledyne Isco (Lincoln, NE), Analogix (Burlington, WI), or Biotage (Stockholm, SWE) automated chromatography system using a commercially available cartridge as the column. Columns may be purchased from Teledyne Isco, Analogix, Biotage, Varian (Palo Alto, CA), or Supelco (Bellefonte, PA) and are usually filled with silica gel as the stationary phase. Reversed phase preparative HPLC conditions, where used, can be found at the end of each experimental section. Aqueous solutions were concentrated on a Genevac (Ipswich, ENG) or by freeze-drying/lyophilization. Unless otherwise noted, all LRRK2 pIC50 data presented in tables refers to the LRRK2 G2019S Km ATP LanthaScreen™ assay (Life Technologies Corp., Carlsbad, CA) that is described in the Biological Assay section.
Biological Assay: LRRK2 Km ATP LanthaScreen™ Assay
Compound potency against LRRK2 kinase activity was determined using LanthaScreen™ technology from Life Technologies Corporation (Carlsbad, CA) using a GST20 tagged truncated human mutant G2019S LRRK2 in the presence of the fluorescein-labeled peptide substrate LRRKtide® (LRRK2 phosphorylated ezrin/radixin/moesin (ERM)), also from Life Technologies. The data presented for the Km ATP LanthaScreen™ Assay represents mean IC50 values based on several test results and may have reasonable deviations depending on the specific conditions and reagents used. Km is the Michaelis constant of an enzyme and is defined as the concentration of native substrate (ATP for a kinase) which permits the enzyme to achieve half Vmax (Vmax=rate of reaction when the enzyme is saturated with substrate). IC50 (half-maximal inhibitory concentration) represents the concentration of inhibitor required to inhibit LRRK2 kinase activity by 50%. Assays were performed in the presence of 134 μM ATP (Km ATP). Upon completion, the assay was stopped, and phosphorylated substrate detected with a terbium (Tb)-labeled anti-pERM antibody (cat. no. PV4898). The compound dose response was prepared by diluting a 10 mM stock of compound to a maximum concentration of 9.99 μM in 100% DMSO, followed by custom fold serial dilution in DMSO nine times. 20 nL of each dilution was spotted via a Labcyte Echo onto a 384-well black-sided plate (Corning 3575) followed by 15 μL of a 1.25 nM enzyme solution in 1× assay buffer (50 mM Tris pH 8.5, 10 mM MgCl2, 0.01% Brij-35, 1 mM EGTA, 2 mM dithiothreitol, 0.05 mM sodium orthovanadate). Following a 15-min incubation period at rt, the kinase reaction was started with the addition of 5 μL of 400 nM fluorescein-labeled LRRKtide® (LRRK2 phosphorylated ezrin/radixin/moesin (ERM)) peptide substrate and 134 μM ATP solution in 1× assay buffer. The reaction was allowed to progress at ambient temperature for 90 min. The reaction was then stopped by the addition of 20 μL of TR-FRET Dilution Buffer (Life Technologies, Carlsbad, CA) containing 2 nM Tb-labeled anti-phospho LRRKtide® (LRRK2 phosphorylated ezrin/radixin/moesin (ERM)) antibody and 10 mM EDTA (Life Technologies, Carlsbad, CA). After an incubation period of 1 h at rt, the plate was read on an EnVision® multimode plate reader (Perkin Elmer, Waltham, MA) with an excitation wavelength of 337 nm (Laser) and a reading emission at both 520 and 495 nm. Compound IC50 values were interpolated from nonlinear regression best-fits of the log of the final compound concentration, plotted as a function of the 520/495-nm emission ratio using activity base “Abase”). Abase uses a 4 parameter (4P) logistic fit based on the Levenberg-Marquardt algorithm. […]

Chain of GST tagged truncated human mutant G2019S LRRK2 (Q5S007 970-2527 G2019S): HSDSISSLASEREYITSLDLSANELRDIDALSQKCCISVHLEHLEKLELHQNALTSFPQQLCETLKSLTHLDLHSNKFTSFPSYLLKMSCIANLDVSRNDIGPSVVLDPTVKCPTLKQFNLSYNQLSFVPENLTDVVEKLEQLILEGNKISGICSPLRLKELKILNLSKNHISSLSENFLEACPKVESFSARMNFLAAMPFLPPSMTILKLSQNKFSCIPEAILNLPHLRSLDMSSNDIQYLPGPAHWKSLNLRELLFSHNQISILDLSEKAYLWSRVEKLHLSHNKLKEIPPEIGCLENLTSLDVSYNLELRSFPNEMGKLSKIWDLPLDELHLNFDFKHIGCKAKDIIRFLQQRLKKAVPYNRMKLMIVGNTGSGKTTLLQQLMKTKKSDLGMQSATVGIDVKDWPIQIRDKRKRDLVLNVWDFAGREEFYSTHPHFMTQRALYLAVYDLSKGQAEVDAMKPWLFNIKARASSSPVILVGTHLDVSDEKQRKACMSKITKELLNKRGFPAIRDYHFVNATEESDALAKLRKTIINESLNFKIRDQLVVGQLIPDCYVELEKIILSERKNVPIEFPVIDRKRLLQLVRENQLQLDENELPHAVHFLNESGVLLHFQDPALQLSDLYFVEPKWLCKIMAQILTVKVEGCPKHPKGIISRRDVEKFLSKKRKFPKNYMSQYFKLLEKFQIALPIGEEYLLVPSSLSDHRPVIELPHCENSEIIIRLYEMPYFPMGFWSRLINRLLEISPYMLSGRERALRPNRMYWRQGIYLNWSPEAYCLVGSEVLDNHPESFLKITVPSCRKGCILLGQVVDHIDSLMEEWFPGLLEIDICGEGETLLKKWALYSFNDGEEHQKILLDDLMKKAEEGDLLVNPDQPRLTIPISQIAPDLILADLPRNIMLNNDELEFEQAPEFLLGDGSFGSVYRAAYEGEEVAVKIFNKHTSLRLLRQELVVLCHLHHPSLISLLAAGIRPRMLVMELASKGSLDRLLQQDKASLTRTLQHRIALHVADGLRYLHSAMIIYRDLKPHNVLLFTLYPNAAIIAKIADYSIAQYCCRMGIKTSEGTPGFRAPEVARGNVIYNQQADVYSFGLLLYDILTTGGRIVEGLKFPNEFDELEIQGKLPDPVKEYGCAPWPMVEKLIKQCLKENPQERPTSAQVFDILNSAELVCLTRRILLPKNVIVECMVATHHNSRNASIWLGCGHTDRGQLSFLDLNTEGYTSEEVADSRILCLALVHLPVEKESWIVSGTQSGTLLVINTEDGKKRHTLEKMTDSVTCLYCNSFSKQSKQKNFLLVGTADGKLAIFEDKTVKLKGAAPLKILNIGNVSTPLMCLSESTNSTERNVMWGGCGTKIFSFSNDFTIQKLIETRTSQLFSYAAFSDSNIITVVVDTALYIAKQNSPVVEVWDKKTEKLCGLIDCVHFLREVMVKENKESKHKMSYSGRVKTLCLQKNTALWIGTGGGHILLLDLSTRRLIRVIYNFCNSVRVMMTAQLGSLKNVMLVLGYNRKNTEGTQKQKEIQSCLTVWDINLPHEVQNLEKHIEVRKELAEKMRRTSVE

| SMILES | LRRK2 pIC50 |
| --- | --- |
| Cc1nn(C)cc1NC(=O)c1csc(-c2cn[nH]c2)n1 [Example 1-41, N-(1,3-dimethyl-1H-pyrazol-4-yl)-2-(1H-pyrazol-4-yl)-1,3-thiazole-4-carboxamide] | 7.23 |
| Cc1nn(C(C)C2CC2)cc1NC(=O)c1csc(-c2cn[nH]c2)n1 (single isomer, unassigned) [Example 2-4, (S)- or (R)-N-{1-[1-cyclopropylethyl]-3-methyl-1H-pyrazol-4-yl}-2-(1H-pyrazol-4-yl)-1,3-thiazole-4-carboxamide] | 6.82 |
| O=C(Nc1cnn(C2CCC2)c1)c1cccc(N2CCCC2)n1 [Example 4-16, N-(1-cyclobutyl-1H-pyrazol-4-yl)-6-(pyrrolidin-1-yl)picolinamide] | 6.04 |
| Cn1cc(NC(=O)c2csc(-c3cn[nH]c3)n2)c(-c2ccncc2)n1 [Example 1-9, N-(1-methyl-3-pyridin-4-yl-1H-pyrazol-4-yl)-2-(1H-pyrazol-4-yl)-1,3-thiazole-4-carboxamide] | 7.09 |
| Cn1cc(NC(=O)c2csc(-c3cn[nH]c3)n2)c(-c2ccc(F)cc2)n1 [Example 1-11, N-[3-(4-fluorophenyl)-1-methy1-1H-pyrazol-4-yl]-2-(1H-pyrazol-4-yl)-1,3-thiazole-4-carboxamide] | 7.90 |
| CC(C1CC1)n1ncc(NC(=O)c2csc(-c3cn[nH]c3)n2)c1C(F)F (single isomer, unassigned) [Example 3-5, (S)- or (R)—N-(1-(1-cyclopropylethyl)-5-(difluoromethyl)-1H-pyrazol-4-yl)-2-(1H-pyrazol-4-yl)thiazole-4-carboxamide] | 5.92 |
| O=C(Nc1cnn(C2CCC2)c1)c1csc(-c2cnn3c2CCC3)n1 [Example 9-3, N-(1-cyclobutyl-1H-pyrazol-4-yl)-2-(5,6-dihydro-4H-pyrrolo[1,2-b]pyrazol-3-yl)-1,3-thiazole-4-carboxamide] | 8.01 |
| O=C(Nc1cn(CC2CCCCO2)nc1C(F)F)c1csc(-c2cn[nH]c2)n1 (stereo not drawn) [Example 7-5, N-[3-(difluoromethyl)-1-(tetrahydro-2H-pyran-2-ylmethyl)-1H-pyrazol-4-yl]-2-(1H-pyrazol-4-yl)-1,3-thiazole-4-carboxamide] | 7.32 |
| CN(C)CCCn1cc(NC(=O)c2csc(-c3cn[nH]c3)n2)cn1 [Example 7-6, N-{1-[3-(dimethylamino)propyl]-1H-pyrazol-4-yl}-2-(1H-pyrazol-4-yl)-1,3-thiazole-4-carboxamide] | 6.43 |
| O=C(Nc1cnn(C2CC2)c1)c1csc(-c2ccn[nH]2)n1 [Example 9-40, N-(1-cyclopropyl-1H-pyrazol-4-yl)-2-(1H-pyrazol-5-yl)thiazole-4-carboxamide] | 7.06 |
| N#CCn1cc(NC(=O)c2csc(-c3cn[nH]c3)n2)c(C(F)F)n1 [Example 7-27, N-[1-(cyanomethyl)-3-(difluoromethyl)-1H-pyrazol-4-yl]-2-(1H-pyrazol-4-yl)-1,3-thiazole-4-carboxamide] | 7.50 |
| Cc1nc(C(=O)Nc2cnn(C3CCC3)c2)ccc1C#N [Example 4-2, 5-cyano-N-(1-cyclobutyl-1H-pyrazol-4-yl)-6-methylpyridine-2-carboxamide] | 5.07 |
| O=C(Nc1cnn(CC2CCC2)c1)c1cccc(-c2cccnc2F)n1 [Example 9-24, N-[1-(cyclobutylmethyl)-1H-pyrazol-4-yl]-2′-fluoro-2,3′-bipyridine-6-carboxamide] | 7.16 |
| O=C(Nc1cnn(CC2CCC2)c1)c1cccc(-c2cnn(CCN3CCOCC3)c2)n1 [Example 9-35, N-[1-(cyclobutylmethyl)-1H-pyrazol-4-yl]-6-[1-(2-morpholin-4-ylethyl)-1H-pyrazol-4-yl]pyridine-2-carboxamide] | 5.32 |
| N#Cc1cccc(-c2cccc(C(=O)Nc3cnn(CC4CCC4)c3)n2)c1 [Example 9-29, 6-(3-cyanophenyl)-N-[1-(cyclobutylmethyl)-1H-pyrazol-4-yl]pyridine-2-carboxamide] | 5.51 |
| COCCn1cc(-c2cccc(C(=O)Nc3cnn(CC4CCC4)c3)n2)cn1 [Example 9-12, N-[1-(cyclobutylmethyl)-1H-pyrazol-4-yl]-6-[1-(2-methoxyethyl)-1H-pyrazol-4-yl]pyridine-2-carboxamide] | 6.95 |
| Cc1nn(C2CCC2)cc1NC(=O)c1csc(-c2cnn(C)c2)n1 [Example 12-5, N-(1-cyclobutyl-3-methyl-1H-pyrazol-4-yl)-2-(1-methyl-1H-pyrazol-4-yl)-1,3-thiazole-4-carboxamide] | 7.30 |
| CC(C1CC1)n1cc(NC(=O)c2csc(-c3cn[nH]c3)n2)c(C(F)F)n1 (stereo not drawn) [Example 3-1, N-(1-(1-Cyclopropylethyl)-3-(difluoromethyl)-1H-pyrazol-4-yl)-2-(1H-pyrazol-4-yl)thiazole-4-carboxamide] | 7.27 |
| CC1(C)CC(Cn2cc(NC(=O)c3csc(-c4cn[nH]c4)n3)cn2)C1 [Example 1-32, N-{1-[(3,3-dimethylcyclobu-tyl)methyl]-1H-pyrazol-4-yl}-2-(1H-pyrazol-4-yl)-1,3-thiazole-4-carboxamide] | 8.00 |
| O=C(Nc1cnn(C2CC2)c1)c1cccc(-c2cnn(CC(F)(F)F)c2)n1 [Example 4-1, N-(1-Cyclopropyl-1H-pyrazol-4-yl)-6-(1-(2,2,2-trifluoroethyl)-1H-pyrazol-4-yl)picolinamide] | 7.98 |
| COCCn1cc(NC(=O)c2csc(-c3cn[nH]c3)n2)c(C(F)F)n1 [Example 7-3, N-[3-(difluoromethyl)-1-(2-methoxyethyl)-1H-pyrazol-4-yl]-2-(1H-pyrazol-4-yl)-1,3-thiazole-4-carboxamide] | 7.27 |
| O=C(Nc1cn(C2CC2)nc1C1CC1)c1csc(-c2cn[nH]c2)n1 [Example 1-6, N-(1,3-dicyclopropyl-1H-pyrazol-4-yl)-2-(1H-pyrazol-4-yl)-1,3-thiazole-4-carboxamide] | 7.84 |
| COC(=O)c1nn(C)cc1NC(=O)c1csc(-c2cn[nH]c2)n1 [Example 1-19, methyl 1-methyl-4-({[2-(1H-pyrazol-4-yl)-1,3-thiazol-4-yl]carbonyl}amino)-1H-pyrazole-3-carboxylate] | 8.66 |
| O=C(Nc1cnn(CC2CCC2)c1)c1cccc(-c2ccncc2)n1 [Example 9-16, N-[1-(cyclobutylmethyl)-1H-pyrazol-4-yl]-2,4′-bipyridine-6-carboxamide] | 5.04 |
| O=C(Nc1cnn(CC2CC(F)(F)C2)c1)c1csc(-c2cn[nH]c2)n1 [Example 1-35, N-{1-[(3,3-difluorocyclobu-tyl)methyl]-1H-pyrazol-4-yl}-2-(1H-pyrazol-4-yl)-1,3-thiazole-4-carboxamide] | 7.77 |
| COc1nn(CC2CCC2)cc1NC(=O)c1csc(-c2cn[nH]c2)n1 [Example 7-19, N-[1-(cyclobutylmethyl)-3-methoxy-1H-pyrazol-4-yl]-2-(1H-pyrazol-4-yl)-1,3-thiazole-4-carboxamide] | 7.80 |
| CC(C)Cn1cc(NC(=O)c2csc(-c3cn[nH]c3)n2)c(C(F)F)n1 [Example 7-23, N-[3-(difluoromethyl)-1-(2-methylpropyl)-1H-pyrazol-4-yl]-2-(1H-pyrazol-4-yl)-1,3-thiazole-4-carboxamide] | 7.59 |
